Measurements from patent publication EP0545103A1, “Insecticidal, acaricidal and molluscicidal 1-(substituted) thioalkylpyrroles” (priority 1991, dated 1993).

How the values were obtained:
Venturia inaequalis = assay: In vivo fungicidal activity, Apple Scab (AS); conditions: rate 400 ppm, host plants sprayed then inoculated, rating, averaged
Experimental: (§1) Test compounds are dissolved in acetone and diluted with deionized water containing about 0.05% TWEEN 20®, a polyoxyethylene sorbitan monolaurate surfactant manufactured by Atlas Chemical Industries, to give a concentration of 400 ppm. Subsequent dilutions are made with an 0.05% aqueous solution of TWEEN 20®.
(§2) Host plants are sprayed with test solution, dried and inoculated with fungi. When disease symptom development is optimal, the plants are rated for disease control according to the rating scale shown below. Each test contains inoculated treated plants, inoculated untreated plants and a reference standard.
(§3) When more than one test is run, the data are averaged.

Plasmopara viticola = assay: In vivo fungicidal activity, Grape Downy Mildew (GDM); conditions: rate 400 ppm, rating, averaged
Experimental: as §1, §2, §3

Cercospora beticola = assay: In vivo fungicidal activity, Sugarbeet Cercospora (SBC); conditions: rate 400 ppm, rating, averaged
Experimental: as §1, §2, §3

[1] = tested on: Puccinia recondita, tritici; assay: In vivo fungicidal activity, Wheat Leaf Rust (WLR); conditions: rate 400 ppm, rating, averaged
Experimental: as §1, §2, §3

[2] = tested on: Erysiphe graminis, tritici; assay: In vivo fungicidal activity, Wheat Powdery Mildew (WPM); conditions: rate 400 ppm, rating, averaged
Experimental: as §1, §2, §3

Pythium ultimum = assay: In vitro fungicidal activity, mycelial growth inhibition on agar (Pyth); assay type: cell-based; conditions: Globisporangium ultimum, 48 h, two days
Experimental: (§4) Test compounds are dissolved in acetone, diluted with sterile, deionized water and mixed with a partially cooled, autoclaved, chemically defined agar medium. This mixture is poured into several 100mm x 15mm sterile plastic plates and allowed to solidify. The surface of each plate is inoculated with a single disc of mycelium and agar cut with an 8mm diameter cork borer from actively growing cultures of assay fungi on a chemically defined agar medium. The plates are incubated at room temperature. Growth inhibition is determined when the mycelial growth on unamended control media has reached the edge of the petri plates. The time interval varies depending on the growth rate of the fungus; two days for Pythium ultimum (pyth) and Rhizoctonia solani (Rhiz) , five days for Botrytis cinerea (Betry) and 7-10 days for Pseudocercosporella herpotrichoides (Pseudo). Each colony diameter is measured and compared with the untreated control and the percent inhibition is calculated as follows: [formula] Each test includes a solvent blank consisting of the formulation without a test compound in addition to the untreated control.
(§5) Assay fungi include the plant pathogens, Pythium ultimum (Pyth) and Rhizoctonia solani (Rhiz).
(§6) When more than one test is run the data are averaged.

Rhizoctonia solani = assay: In vitro fungicidal activity, mycelial growth inhibition on agar (Rhiz); assay type: cell-based; conditions: 48 h, two days
Experimental: as §4, §5, §6

[3] = tested on: Spodoptera eridania, 3rd instar larvae, southern armyworm; assay: Southern armyworm 3rd instar test, dipped limabean leaf; assay type: in vivo; conditions: 1000 ppm
How it was run: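 Compound dissolved in 35% acetone/water at 10,000 ppm stock, diluted with water. Sieva limabean leaves dipped 3 s, dried, and exposed to ten 3rd instar larvae on damp filter paper. Mortality, reduced feeding and molting interference scored at 3 and 5 days on a rating scale.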

[4] = tested on: Diabrotic undecimpunctata howardi, 3rd instar southern corn rootworm; assay: Southern corn rootworm soil test; assay type: in vivo; design: key: 0: no effect; 10-25% kill; 26-35% kill; 36-45% kill; 46-55% kill; 56-65% kill; 66-75% kill; 76-85% kill; 86-99% kill; 9: 100% kill; conditions: 50 (ppm as headed), mortality rating after 6 days
How it was run: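 Compound applied in acetone to talc at 1.25 and 0.25 mg active ingredient per jar (about 50 and 10 kg/ha), dried, then mixed with millet seed and moist soil. Ten 3rd instar larvae added per jar; mortality counted at 6 days, with missing larvae scored dead. Results rated on a scale.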

SMILES: N#CSCn1c(Br)c(Br)c(C#N)c1Br [Example 38, 1-[(cyanothio)methyl]-2,4,5-tribromopyrrole-3-carbonitrile]
- Disease Control AS (Venturia inaequalis): 2.0
- Disease Control GDM (Plasmopara viticola): 3.0
- Disease Control SBC (Cercospora beticola): 0 (0)
- Disease Control WLR [1]: 5.0
- Disease Control WPM [2]: 0 (0)
- inhibition at 1 ppm (Pythium ultimum; rate 1 ppm in agar): 1.5%
- inhibition at 10 ppm (Pythium ultimum; rate 10 ppm in agar): 4%
- inhibition at 25 ppm (Pythium ultimum; rate 25 ppm in agar): 4.5%
- inhibition at 1 ppm (Rhizoctonia solani; rate 1 ppm in agar): 1.5%
- inhibition at 10 ppm (Rhizoctonia solani; rate 10 ppm in agar): 3.5%
- inhibition at 25 ppm (Rhizoctonia solani; rate 25 ppm in agar): 5.8%
- ARMYWORM Day 3 ([3]; rating at 3 days): 9 (100% kill)
- ARMYWORM Day 5 ([3]; rating at 5 days): 9 (100% kill)
- SOUTHERN CORN ROOTWORM [4]: 0
